Biological target: T1, human LPAR1 (Homo sapiens, UniProt Q92633)
T1 construct: expressed in transfected cells
Assay: Test Example 1: antagonism against response of LPA-induced increase in intracellular Ca2+ concentration in RH7777 cells stably expressing human LPAR1
Assay type: cell-based
Details: RH7777 cells stably expressing human LPAR1; Fluo-4 fluorescence, FDSS6000; read-out: IC50 value (concentration producing 50% antagonism against response of LPA-induced increase in intracellular Ca2+ concentration) (converted)
Procedure, shortened: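 RH7777 cells stably transfected with human LPAR1 were preincubated with test compound 30 min at 37 °C in HBSS/20 mM HEPES/probenecid/0.05% BSA buffer, pH 7.4, then LPA-stimulated.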

T1 sequence (Q92633 whole entry): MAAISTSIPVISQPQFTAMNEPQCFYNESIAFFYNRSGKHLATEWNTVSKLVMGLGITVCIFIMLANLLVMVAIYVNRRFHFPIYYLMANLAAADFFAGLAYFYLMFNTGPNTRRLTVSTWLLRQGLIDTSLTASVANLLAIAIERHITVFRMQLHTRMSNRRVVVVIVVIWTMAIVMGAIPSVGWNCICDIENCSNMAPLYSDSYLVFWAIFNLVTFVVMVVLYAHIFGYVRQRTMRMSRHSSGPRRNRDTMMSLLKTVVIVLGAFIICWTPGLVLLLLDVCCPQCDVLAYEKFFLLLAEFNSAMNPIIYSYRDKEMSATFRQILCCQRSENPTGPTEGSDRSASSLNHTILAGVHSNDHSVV

IC50 | Structure (SMILES)
26.4 nM | CCOc1cc(C(C)N(CCCCc2cc(F)cc(F)c2)C(=O)NC2(C(=O)O)CC(F)(F)C2)cc(OCC)c1C (stereo not drawn) [Example 4-10]
1.65 nM | CCOc1cc(C(C)N(CCO[C@@H](C)c2ccccc2)C(=O)NC2(C(=O)O)CC(OCC)C2)c(C)c(OCC)c1C1CC1 (stereo partly drawn) [Example 5-217]
8.25 nM | CCOc1cc([C@@H](C)N(CCC(F)(F)Cc2ccccc2)C(=O)NC2(C(=O)O)CCOCC2)cc(OCC)c1C1CC1 [Example 4-96]
3.36 nM | CCOc1cc(C(C)N(CCCCc2ccccc2)C(=O)NC2(C(=O)O)CC(F)(F)C2)c(F)c(OCC)c1C (stereo not drawn) [Example 5-83]
2.15 nM | CCOc1cc([C@@H](C)N(CCO[C@@H](C)c2ccccc2)C(=O)NC2(C(=O)O)CCC2)c(Cl)c(OCC)c1C(C)=O [Example 5-30]
4.69 nM | CCOc1cc([C@@H](C)N(CCCCc2ccccc2)C(=O)NC2(c3nnn[nH]3)CC(F)(F)C2)cc(OCC)c1C(C)O (stereo partly drawn) [Example 10-9, N-{(1R)-1-[3,5-Diethoxy-4-(1-Hydroxyethyl)Phenyl]Ethyl}-N′-[3,3-Difluoro-1-(1H-Tetrazol-5-Yl)Cyclobutyl]-N-(4-Phenylbutyl) Urea]
443 nM | CCOc1cc(C(C)N(CCO[C@@H](C)c2ccccc2)C(=O)NC2(C(=O)OC)CC(F)(F)C2)c(Cl)c(OCC)c1C(C)=O (stereo partly drawn) [Example 6-7]
5.15 nM | CCOc1cc([C@@H](C)N(CCCC(F)(F)c2ccccc2)C(=O)NC2(C(=O)O)CC(OC)C2)cc(OCC)c1C(C)O (single isomer, unassigned) [Example 4-62]
2.74 nM | CCOc1cc(C(C)N(CCOCc2ccccc2)C(=O)NC2(C(=O)O)CC(OC)C2)c(Cl)c(OCC)c1C(C)=O (stereo not drawn) [Example 5-205]
3.75 nM | CCOc1c(C(C)=O)ccc([C@@H](C)N(CCCC(F)(F)c2ccccc2)C(=O)NC2(C(=O)O)CCC2)c1C [Example 4-54]
3.17 nM | CCOc1cc([C@@H](C)N(CCO[C@@H](C)c2ccccc2)C(=O)N[C@]2(C(=O)O)C[C@@H](OCC)C2)c(Cl)c(OCC)c1C(C)O (single isomer, unassigned) [Example 5-61]
8.01 nM | CCOc1cc([C@@H](C)N(CCO[C@@H](C)c2ccccc2)C(=O)N[C@]2(C(=O)O)C[C@H](OC)C2)c(Cl)c(OCC)c1C(C)O (single isomer, unassigned) [Example 5-59]
2.26 nM | CCOc1cc([C@@H](C)N(CCCc2ccccc2)C(=O)NC2(C(=O)O)CC(F)(F)C2)cc(OCC)c1C(C)=O [Example 4-35, 1-({[(1R)-1-(4-Acetyl-3,5-Diethoxyphenyl)Ethyl](3-Phenylpropyl) Carbamoyl}Amino)-3,3-Difluorocyclobutane-1-Carboxylic Acid]
292 nM | CCOc1cc([C@@H](C)N(CCOCc2ccccc2)C(=O)NC2CC(C(=O)O)C2)c(Cl)c(OCC)c1C(C)=O (stereo partly drawn) [Example 5-37]
1.62 nM | CCOc1cc([C@@H](C)N(CCCC(F)(F)c2ccccc2)C(=O)NC2(C(=O)O)CC(F)(F)C2)cc(OCC)c1C1CC1 [Example 4-59]
1.07 nM | CCOc1cc([C@@H](C)N(CCOCc2ccccc2)C(=O)N[C@]2(C(=O)O)C[C@@H](OCC)C2)c(C)c(OCC)c1C [Example 5-81]
3.92 nM | CCOc1cc([C@@H](C)N(CCO[C@@H](C)c2ccccc2)C(=O)N[C@]2(C(=O)O)C[C@H](OCC)C2)cc(OCC)c1C(C)O (stereo partly drawn) [Example 4-134]
32.7 nM | CCOc1cc([C@@H](C)N(CCCCc2ccccc2C)C(=O)NC2(C(=O)O)CC(F)(F)C2)cc(OCC)c1C [Example 4-15]

IC50 | Structure (SMILES)
3.5 nM | CCOc1cc(C(C)N(CCOC(C)c2ccccc2)C(=O)NC2(C(=O)O)CC(OC)C2)c(Cl)c(OCC)c1C(C)=O (stereo not drawn) [Example 5-208]
15.4 nM | CCOc1c(C(C)=O)ccc([C@@H](C)N(CCC(F)(F)Cc2ccccc2)C(=O)NC2(C(=O)O)CC(F)(F)C2)c1C [Example 4-88]
7.45 nM | CCOc1cc([C@@H](C)N(CCC(F)(F)Cc2ccccc2)C(=O)NC2(C(=O)O)CC(OC)C2)c(Cl)c(OCC)c1C(C)=O (stereo partly drawn) [Example 5-42]
672 nM | CCOc1cc([C@@H](C)N(CCO[C@@H](C)c2ccccc2)C(=O)NC2(C(=O)OC)CC2)c(Cl)c(OCC)c1C(C)=O [Example 6-3, Methyl 1-[([(1R)-1-(4-Acetyl-2-Chloro-3,5-Diethoxyphenyl)Ethyl]{2-[(1S)-1-Phenylethoxy]Ethyl}Carbamoyl)Amino]Cyclopropane-1-Carboxylate]
5.6 nM | CCOc1cc(C(C)N(CCCCc2ccccc2)C(=O)NC2(C(=O)O)CC(F)(F)C2)cc2c1cnn2CC (stereo not drawn) [Example 5-99, 1-({[1-(4-Ethoxy-1-Ethyl-1H-Indazol-6-Yl)Ethyl](4-Phenylbutyl) Carbamoyl}Amino)-3,3-Difluorocyclobutane-1-Carboxylic Acid]
1.97 nM | CCOc1cc([C@@H](C)N(CCC(F)(F)Cc2ccccc2)C(=O)N[C@]2(C(=O)O)C[C@@H](OC)C2)cc(OCC)c1C1CC1 [Example 4-91]
0.761 nM | CCOc1cc(C(C)N(CCOCc2ccccc2)C(=O)NC2(C(=O)O)CC(OC)C2)cc(OCC)c1C1CC1 (stereo not drawn) [Example 5-199]
1.36 nM | CCOc1cc(C(C)N(CCOC(C)c2ccccc2)C(=O)NC2(C(=O)O)CC(OC)C2)c(Cl)c(OCC)c1C1CC1 (stereo not drawn) [Example 5-207]
2.43 nM | CCOc1c(C2CC2)ccc([C@@H](C)N(CCO[C@H](C)c2ccccc2)C(=O)NC2(C(=O)O)CC(F)(F)C2)c1C [Example 4-172]
35.4 nM | CCOc1cc(OCC)cc(C(C)N(CCCCc2ccccc2)C(=O)NC2(C(=O)O)CCCC2)c1 (stereo not drawn) [Example 5-10]
10.1 nM | CCOc1cc(C(C)N(CCCCc2ccccc2)C(=O)NC2(C(=O)O)CC(F)(F)C2)c2c(c1)N(CC)CC2 (stereo not drawn) [Example 5-97]
10.4 nM | CCOc1cc([C@@H](C)N(CCOC(C)(C)c2ccccc2)C(=O)NC2(C(=O)O)CC(F)(F)C2)cc(OCC)c1C1CC1 [Example 4-160]
0.815 nM | CCOc1cc([C@@H](C)N(CCOCc2ccccc2)C(=O)NC2(C(=O)O)CC(F)(F)C2)cc(OCC)c1C(C)=O [Example 4-102]
10.8 nM | COc1cc(C(C)N(CCO[C@@H](C)c2ccccc2)C(=O)NC2(C(=O)O)CCC2)c(C)c(OC)c1C (stereo partly drawn) [Example 5-140]
4.86 nM | CCOc1cc(C(C)N(CCOC(C)c2ccccc2)C(=O)NC2(c3nn[nH]n3)CC(OC)C2)cc(OCC)c1C(C)=O (stereo not drawn) [Example 10-16]
10.1 nM | CCOc1cc([C@@H](C)N(CCC(F)(F)Cc2ccccc2)C(=O)NC2(C(=O)O)CC(OCC)C2)cc(OCC)c1C(C)=O (stereo partly drawn) [Example 4-93]
14 nM | CCOc1cc([C@@H](C)N(CCC(F)(F)Cc2ccccc2)C(=O)NC2(C(=O)O)CC(OC)C2)c(C)c(OCC)c1C (stereo partly drawn) [Example 5-77]
2.05 nM | CCOC1CC(NC(=O)N(CCOCc2ccccc2)C(C)c2cc(OC)c(C3CC3)c(OC)c2C)(C(=O)O)C1 (stereo not drawn) [Example 5-165]

Further lines, the compound ahead of its results:

Structure (SMILES) | IC50
CCOc1cc([C@@H](C)N(CCCCc2ccccc2)C(=O)NC2(C(=O)O)CC(OCC)C2)cc(OCC)c1C(C)O (stereo partly drawn) [Example 1-99] | 2.58 nM
CCOc1cc(C(C)N(CCCCc2ccccc2)C(=O)NC2(C(=O)O)CC(F)(F)C2)cc(O)c1C(C)=O (stereo not drawn) [Example 1-62, 1-({[1-(4-Acetyl-3-Ethoxy-5-Hydroxyphenyl)Ethyl](4-Phenylbutyl) Carbamoyl}Amino)-3,3-Difluorocyclobutane-1-Carboxylic Acid] | 6.76 nM
CCOc1cc([C@@H](C)N(CCCCc2ccccc2)C(=O)NC2CC(C(=O)O)N(C(C)=O)C2)cc(OCC)c1C(C)=O (stereo partly drawn) [Example 1-163] | 20.5 nM
CCOc1cc([C@@H](C)N(CCCCc2ccccc2)C(=O)NC2(C(=O)O)CNC2)cc(OCC)c1C [Example 1-158, 3-({[(1R)-1-(3,5-Diethoxy-4-Methylphenyl)Ethyl](4-Phenylbutyl) Carbamoyl}Amino) Azetidine-3-Carboxylic Acid] | 294 nM
COc1cc(C(C)N(CCCCc2ccccc2)C(=O)NC2(C(=O)O)CCCC2)cc(OC)c1C (stereo not drawn) [Example 1-116] | 57.4 nM
CCOc1cc([C@@H](C)N(CCCCc2ccccc2)C(=O)NC2(C(=O)O)CC(OCC)C2)cc(OCC)c1C(C)O (stereo partly drawn) [Example 1-98] | 4.33 nM
CCOc1cc(C(C)N(CCCCc2ccccc2)C(=O)NC2(C(=O)O)CC(F)(F)C2)cc(OCC)c1C(C)=O (stereo not drawn) [Example 1-56] | 33 nM
CCOc1cc([C@@H](C)N(CCCCc2ccccc2)C(=O)NC2(C(=O)O)CCOCC2)cc(OCC)c1C [Example 1-154] | 11.3 nM
CCOc1cc(C(C)N(CCCCc2ccccc2)C(=O)NC2(CC(=O)O)Cc3ccccc3C2)cc(OCC)c1C (stereo not drawn) [Example 1-147] | 40.6 nM
CCOc1cc(C(C)N(CCCCc2ccccc2)C(=O)NC2(CC(=O)O)CCCC2)cc(OCC)c1C (stereo not drawn) [Example 1-146] | 24.3 nM
CCOc1cc([C@@H](C)N(CCCCc2ccccc2)C(=O)NC2(C(=O)O)CC(N3CCOCC3)C2)cc(OCC)c1C (stereo partly drawn) [Example 1-110] | 20.2 nM
CCOc1c(C(C)=O)ccc([C@@H](C)N(CCCCc2ccccc2)C(=O)NC2(C(=O)O)CC2)c1C [Example 1-19] | 4.1 nM
CCOc1cc(C(C)N(CCCCc2ccccc2)C(=O)NC2(C(=O)O)CCCC2)cc(OC(C)C)c1C (stereo not drawn) [Example 1-114] | 128 nM
CCOc1cc([C@@H](C)N(CCCCc2ccccc2)C(=O)NC2(C(=O)O)CC2)cc(OCC)c1C(C)=O [Example 1-16, 1-({[(1R)-1-(4-Acetyl-3,5-Diethoxyphenyl)Ethyl](4-Phenylbutyl) Carbamoyl}Amino)Cyclopropane-1-Carboxylic Acid] | 2.23 nM
CCOc1cc([C@@H](C)N(CCCCc2ccccc2)C(=O)NC2(C(=O)O)CCOCC2)cc(OCC)c1C(C)=O [Example 1-151] | 3.57 nM
COc1cc(C(CO)N(CCCCc2ccccc2)C(=O)NC2(C(=O)O)CC(F)(F)C2)cc(OC)c1C (stereo not drawn) [Example 3-6] | 7.07 nM
CCOc1cc(C(C)N(CCCCc2ccccc2)C(=O)NC2(C(=O)O)CC(F)(F)C2)cc(OCC)c1CC (stereo not drawn) [Example 1-47] | 2.71 nM
CCOc1cc(C(C)N(CCCCc2ccccc2)C(=O)NC2(C(=O)O)CCC(C(=O)O)CC2)cc(OCC)c1C (stereo not drawn) [Example 1-120] | 1670 nM

Source: patent publication US12338203B2 (TAISHO PHARMACEUTICAL CO., LTD., priority 2019, dated 2025)
